Several values for one entry are separate records, joined by “and”; a condition that tells them apart may be missing. Equal entries are not always repeated.
Conditions: Closed cell (Static) method

O [water]
Conditions | vapor or sublimation pressure
249.29 K, Crystal | 0.07045 kPa
249.35 K, Crystal | 0.07242 kPa
250.11 K, Crystal | 0.08146 kPa
252.96 K, Crystal | 0.09665 kPa
253.02 K, Crystal | 0.1036 kPa and 0.1016 kPa
253.59 K, Crystal | 0.1049 kPa
257.86 K, Crystal | 0.1607 kPa
258.04 K, Crystal | 0.1642 kPa and 0.1567 kPa
258.05 K, Crystal | 0.165 kPa
262.84 K, Crystal | 0.2552 kPa
262.98 K, Crystal | 0.2629 kPa and 0.2541 kPa
263 K, Crystal | 0.2517 kPa
267.85 K, Crystal | 0.4157 kPa
267.91 K, Crystal | 0.4036 kPa
267.93 K, Crystal | 0.392 kPa
267.99 K, Crystal | 0.423 kPa
272.87 K, Liquid | 0.6049 kPa
272.98 K, Liquid | 0.6038 kPa
273.02 K, Liquid | 0.6135 kPa
277.94 K, Liquid | 0.8666 kPa
277.95 K, Liquid | 0.8493 kPa
277.97 K, Liquid | 0.8679 kPa
278.01 K, Liquid | 0.8712 kPa
278.07 K, Liquid | 0.8686 kPa
282.91 K, Liquid | 1.211 kPa
282.94 K, Liquid | 1.215 kPa
282.95 K, Liquid | 1.197 kPa
283.03 K, Liquid | 1.224 kPa
288 K, Liquid | 1.687 kPa
292.84 K, Liquid | 2.295 kPa
293.03 K, Liquid | 2.307 kPa
293.1 K, Liquid | 2.337 kPa
302.8 K, Liquid | 4.162 kPa
303.07 K, Liquid | 4.214 kPa and 4.238 kPa
303.1 K, Liquid | 4.235 kPa
312.8 K, Liquid | 7.248 kPa
313.11 K, Liquid | 7.367 kPa
313.12 K, Liquid | 7.372 kPa
313.16 K, Liquid | 7.386 kPa
317 K, Liquid | 9.084 kPa
322.82 K, Liquid | 12.15 kPa
323.13 K, Liquid | 12.33 kPa
323.14 K, Liquid | 12.33 kPa
323.19 K, Liquid | 12.34 kPa
328.15 K, Liquid | 15.75 kPa
332.83 K, Liquid | 19.63 kPa
333.18 K, Liquid | 19.94 kPa and 19.95 kPa
333.24 K, Liquid | 19.97 kPa
338.19 K, Liquid | 25.06 kPa
342.81 K, Liquid | 30.69 kPa
343.21 K, Liquid | 31.24 kPa
343.22 K, Liquid | 31.24 kPa
343.28 K, Liquid | 31.27 kPa
348.23 K, Liquid | 38.65 kPa
352.81 K, Liquid | 46.65 kPa
353.23 K, Liquid | 47.47 kPa
353.24 K, Liquid | 47.46 kPa
353.31 K, Liquid | 47.53 kPa
358.25 K, Liquid | 57.93 kPa
362.79 K, Liquid | 68.98 kPa
363.24 K, Liquid | 70.36 kPa
363.26 K, Liquid | 70.26 kPa
363.33 K, Liquid | 70.34 kPa
368.27 K, Liquid | 84.67 kPa
373.26 K, Liquid | 101.68 kPa
373.28 K, Liquid | 101.4 kPa
373.37 K, Liquid | 102.01 kPa

Source: the NIST ThermoML archive (doi:10.1007/s10765-012-1261-6)
